# Patent US20260216181A1, “COMPOSITIONS AND METHODS FOR TREATING CANCER” (Coiled Therapeutics, Inc., priority 2022, published 2026)
# Key:
# [1] = Wurdak et al., 2010; cited from earlier work
# neuronal differentiation = conditions: rats; Wurdak et al., 2010; cited from earlier work
# [2] = system: glioblastoma (GBM) xenografts; conditions: Polson et al., 2018; cited from earlier work
# SKOV-3 xenograft = SKOV-3 xenograft tumor growth; format: in vivo, athymic Balb/c nude mice; conditions: 20, 25 and 30 mpk BID
# Experimental: (§1) Compound 80 was tested in other xenograft models using the following cell lines: triple negative breast cancer cell line, MDA-MB-231, ovarian cancer cell line, SKOV-3 and endometrium cell line, HEC-59. For the SKOV-3 xenograft, 1.5×10^7 SKOV-3 cells in 200 μl of 1:1 DMEM:Matrigel (Thermo Fisher, NJ, USA) and for the MDA-MB-231 xenograft, 1.×10^7 MDA-MB-231 cells in 100 μl of 1:1 DMEM:Matrigel (Thermo Fisher, NJ, USA) for was injected in the right flank of six-to-eight-week-old female athymic Balb/c nude mice. When the tumor volume reached mean of ~200 mm^3 mice for SKOV-3 xenografts and between 150-175 mm^3 for MDA-MB-231 xenografts, mice were randomized in a group of 8, and treatment was initiated vehicle, 20 mpk BID, 25 mpk BID and 30 mpk BID of Compound 80. For the HEC-59 xenografts, 1.×10^7 HEC-59 cells in 100 μl of DMEM (Lonza, NJ, USA) was injected in the right flank of six-to-eight-week-old female athymic Balb/c nude mice. When the tumor volume reached mean of ~150 mm^3 mice were randomized in a group of 8 mice, and treatment was initiated vehicle, 20 mpk BID, 40 mpk QD and 30/40 mpk BID of Compound 80.
# MDA-MB-231 xenograft = MDA-MB-231 xenograft tumor growth; format: in vivo, athymic Balb/c nude mice; conditions: 20, 25 and 30 mpk BID
# Experimental: as §1
# RKO xenograft = test: RKO colon cancer xenograft tumor growth; format: in vivo, athymic Balb/c nude mice
# Experimental: Six-to-eight-week-old female athymic Balb/c nude mice were housed with a temperature-controlled and 12-hour light/12-hour dark cycle environment. For in vivo colon cancer tumor growth, 5×10^6 RKO cells were prepared in 100 μl of DMEM and injected into right flank of female nude mice. Mouse weight and tumor volume were measured twice a week. Tumor volumes were calculated as length×width^2×0.5. Once the tumor volume had reached about 150-175 mm^3, xenografts were randomized into groups (8 mice per group). Animals were treated with vehicle, Compound 80 or oxaliplatin as mentioned in the table. The formulation for vehicle and Compound 80 was 50% PEG400 and 20% Cremophor RH40 final (50% of 40% Cremophor) in Acetate buffer, PH=4. Oxaliplatin was prepared in glucose solution. The mice were sacrificed after around 3 weeks or if the tumors reached a predefined tumor volume cut-off of 2500 mm^3.
# HEC-59 xenograft = HEC-59 xenograft tumor growth; format: in vivo, athymic Balb/c nude mice; conditions: 20 mpk BID, 40 mpk QD, 30/40 mpk BID
# Experimental: as §1
# [3] = system: ovarian cancer xenografts; conditions: Yao et al., 2014; cited from earlier work
# ovarian cancer cells = conditions: Yao et al., 2014; cited from earlier work
smiles,measurement,setting,value
CC(C)CNc1ccnc(NCc2csc(-c3ccccc3)n2)n1 [KHS101],oral systemic stability,[1],low oral systemic stability
same,neuronal differentiation,neuronal differentiation,promote neuronal differentiation
same,tumor growth of glioblastoma (GBM) xenografts,[2],suppressed
"C[C@@H]1CN(c2ncc(F)c(Nc3cc(-c4ccc(OC(F)F)cc4)cnn3)n2)C[C@H](C)O1 [Compound 80, 5-(4-(difluoromethoxy)phenyl)-N-(2-((2R,6S)-2,6-dimethylmorpholino)-5-fluoropyrimidin-4-yl)pyridazin-3-amine]",tumor growth inhibition or regression,SKOV-3 xenograft,Statistically significant tumor growth inhibition or regression
same,tumor growth inhibition or regression,MDA-MB-231 xenograft,Statistically significant tumor growth inhibition or regression
same,tumor growth inhibition,"RKO xenograft; RKO xenograft, 20 and 30 mg/kg BID, 50 mg/kg QD, PO",strong tumor growth inhibition in a dose-dependent manner
same,tumor growth inhibition compared to the standard of care (FIG. 1),"RKO xenograft; xenograft model, vs standard of care",superior tumor growth inhibition
same,tumor growth inhibition or regression,HEC-59 xenograft,Statistically significant tumor growth inhibition or regression
CCN(Cc1ccncc1)Cc1c(O)ccc2c(-c3cc4ccccc4oc3=O)cc(=O)oc12 [SPL-B],tumor growth in ovarian cancer xenografts,[3],suppress tumor growth
same,centrosome microtubule nucleation,ovarian cancer cells,inhibit the centrosome microtubule nucleation
